Series [1] concerns the target T1, CXCR4 (Homo sapiens, UniProt P61073). In words: Human CXCR4/125I-SDF-1α binding inhibition assay. Particulars: for Ki: CCRF-CEM cells expressing endogenous CXCR4, Ki calculated from IC50. Also noted: human leukemia CCRF-CEM cells (ATCC CCL 119) expressing endogenous CXCR4 are employed; endogenous in cells; host or cells: CCRF-CEM (ATCC CCL 119), whole cells. The method, then:
“Ki” values are calculated using IC50 values determined in the CXCR4/^125I-SDF-1α binding assay described below by employing equation 7.22 of Enzymes, A Practical Introduction to Structure, Mechanism, and Data Analysis, Robert A. Copeland, Wiley-VCH, New York, 1996, page 207.
Human CXCR4/^125I-SDF-1α Binding Inhibition Assay
SDF-1 binding to CXCR4 is the first step in activating the CXCR4 intracellular signalling pathway. To determine if a compound can block the interaction of SDF-1 and CXCR4, human leukemia CCRF-CEM cells (ATCC CCL 119) expressing endogenous CXCR4 are employed in an ^125I-labeled SDF-1α binding assay. The assay is performed in a 96-well U-bottom, non-treated polystyrene plate (Corning Incorporated, Costar, No. 3632). The binding assay buffer is prepared with RPMI 1640 medium (Gibco, Grand Island, N.Y.) containing 10 mM HEPES, pH 7.5, and 0.2% BSA. Briefly, 200 μL reaction mixtures containing 300 pM SDF ligand (60 pM ^125I-SDF-1α (Perkin Elmer) and 240 pM cold SDF-1α (R&D Systems), different concentrations of the test compound in assay buffer, 100,000 human CCRF-CEM cells, and 0.5 mg SPA beads (Wheatgerm agglutinin beads; Amersham) are incubated at room temperature for 2 hr. Plates are then counted in a 1450 Microbeta Liquid Scintillation and Luminescence Counter (Wallac) in SPA mode. CXCR4 antagonists decrease the bound radioactivity in this assay in a dose-dependent manner. The inhibitory potency (K1 or IC50) of a test compound is calculated using GraphPad Prism software, based on the dose-dependent decrease of bound radioactivity.

Series [2] concerns human non-Hodgkin's lymphoma Namalwa cells. In words: Anti-tumor activity in a SCID/Namalwa xenograft model. Type of series: in vivo, mouse. Conditions: 1 mg/kg BID, subcutaneous. From the text:
Anti-Tumor Activity in a SCID/Namalwa Xenograft Model
SDF-1/CXCR4 interaction appears to play an important role in multiple stages of tumorigenesis, including tumor growth, invasion, angiogenesis, and metastasis. To evaluate in vivo anti-tumor activity of a test compound, a tumor xenograft model using NOD/SCID mice (Jackson Laboratories) and human non-Hodgkin's lymphoma Namalwa cells (ATCC CRL 1432) are employed. Briefly, 200,000 Namalwa cells mixed with matrigel (1:1) are implanted subcutaneously into the rear flank of the animals. The implanted tumor cells grow as solid tumors, the dimensions of which can be continuously monitored and measured using a caliper. To determine the in vivo efficacy of a test compound in this model, one can treat animals (10/group) with different doses of test compounds dissolved in saline or PBS, beginning 48 hours post tumor cell implantation. Compounds are dosed subcutaneously, and tumor volume and body weight are determined every 2 or 3 days. Studies generally last 3-4 weeks, depending on tumor growth. The anti-tumor growth activity of a test compound is determined by the percent reduction in tumor volume in treatment groups compared to tumor volume in control groups treated with vehicle alone.

Series [3] deals with neutrophils and white blood cells in peripheral blood. Briefly: Compound-induced white blood cell and neutrophil mobilization in C57BL/6 mice. Particulars: 5 mg/kg. The format is in vivo, mouse. An excerpt: Compound-Induced White Blood Cell and Neutrophil Mobilization in C57BL/6 Mice
Stem cells within the bone marrow actively maintain continuous production of all mature blood cell lineages throughout life. Bone marrow is the primary site for white blood cell (WBC)/neutrophil production and release into the circulation. The CXCR4/SDF-1 axis appears to be critical for the retention and release of WBCs, neutrophils, and hematopoietic progenitor cells in the bone marrow, and interruption of CXCR4/SDF-1 interaction in bone marrow leads to an increase of these cells in peripheral blood. A short-term mouse WBC/neutrophil mobilization model can be used to determine the in vivo target-modulating activity of a test compound. Briefly, pathogen-free 5-6 week old female C57BL/6 mice (Taconic) are housed for at least one week prior to assay. Animals are allowed continuous access to sterilized rodent chow and acidified water. Groups of 5 mice are injected subcutaneously with test compounds in saline, or with saline control, and then sacrificed by CO2 asphyxiation and cervical dislocation at various time points post compound administration. Peripheral blood is collected by cardiac puncture using EDTA-coated syringes and tubes. […] Total WBCs, neutrophils, and lymphocytes in the peripheral blood are recorded. […]

Series [4] deals with T1, CXCR4. Briefly: Chemotaxis assay, SDF-1α-induced migration of U937 cells. The format is cell-based. Also noted: endogenous in cells. Particulars: SDF-1α 10 ng/mL. From the text:
CXCR4/SDF-1 interaction regulates migration (chemotaxis) of cells bearing CXCR4 on their surface. To determine the antagonist and cellular activities of a test compound, a chemotaxis assay using human histiocytic lymphoma U937 cells (ATCC CRL 1593) that express endogenous CXCR4 are employed. Briefly, U937 cells, grown in DMEM medium (Gibco, Grand Island, N.Y.) containing 10% FBS, 1% MEM sodium pyruvate (Gibco), 1% MEM nonessential amino acids (Gibco), and 1% GlutaMAX 1 (Gibco), are harvested and washed once with chemotaxis assay buffer prepared with 1×RPMI medium (Gibco) containing 10 mM HEPES, pH 7.5, and 0.3% BSA. After washing, cells are resuspended in assay buffer at a concentration of 5×10^6 cells/mL. The assay is performed in a 96-well ChemoTx plate (NeuroProbe) according to the manufacturer's directions. […] The plate is then incubated for 60 min at 37° C., and the migrated cells are detected by measuring the absorbance at 492 nm with a Tecan Spectrafluor Plus Microplate Reader (Salzburg, Austria). CXCR4 antagonists inhibit cell migration, reducing the absorbance reading. The inhibitory potency (IC50) of a test compound in this assay is calculated using GraphPad Prism software, based on the dose-dependent decrease of absorbance at 492 nm.

A short description of another series: Bioavailability in rats. Conditions: rat, in vivo, sc, subcutaneous. As to the method: Pharmacologic properties such as compound bioavailability, in vivo metabolic stability, and pharmacokinetic/pharmacodynamic properties can be determined by methods well known in the art of drug development. […] For example, in mice, the half-life (T½) of the compound of Example 58 is about 3 hours. With respect to pharmacodynamic properties, preferred compounds induce prolonged neutrophil and white blood cell mobilization in mice. For example, the compound of Example 25 induces a significant increase of neutrophils and white blood cells in peripheral blood for at least 6 hours after single dose subcutaneous administration at 5 mg/kg in mice.

For orientation: Ki means a dissociation constant, usually derived from enzyme kinetics or from competition with a known ligand. As usually defined, the IC50 is the concentration at which inhibition is half-maximal. The low end stands for greater potency, the high end for weaker potency. As a reminder, the bioavailability is the share of a dose that reaches the circulation, judged against a reference dose that is usually intravenous. High values mean much systemic uptake, low ones little systemic uptake.

Numbered stars: 1 amine (or outer) side, 2 acyl side, 3 side chain; on linkers, the order of the positions; unused ones are H or OH. Bridge positions count the residues as written; N and C are the ends. Square brackets hold non-standard residues; d marks the D form. Peptide text beside a SMILES is read from it. * marks the point of attachment. Lys(iPr-d6) = deuterated Lys(iPr), [2H]C([2H])([2H])C(NCCCC[C@H](N[*:1])C(=O)[*:2])C([2H])([2H])[2H]; 2Nal = N[C@@H](Cc1ccc2ccccc2c1)C(=O)O; Lys(iPr) = CC(C)NCCCC[C@H](N)C(=O)O; Lys(Me2) = CN(C)CCCC[C@H](N)C(=O)O; Dap = NC[C@H](N)C(=O)O; Bz = O=C(c1ccccc1)*

T1 sequence (P61073 whole entry): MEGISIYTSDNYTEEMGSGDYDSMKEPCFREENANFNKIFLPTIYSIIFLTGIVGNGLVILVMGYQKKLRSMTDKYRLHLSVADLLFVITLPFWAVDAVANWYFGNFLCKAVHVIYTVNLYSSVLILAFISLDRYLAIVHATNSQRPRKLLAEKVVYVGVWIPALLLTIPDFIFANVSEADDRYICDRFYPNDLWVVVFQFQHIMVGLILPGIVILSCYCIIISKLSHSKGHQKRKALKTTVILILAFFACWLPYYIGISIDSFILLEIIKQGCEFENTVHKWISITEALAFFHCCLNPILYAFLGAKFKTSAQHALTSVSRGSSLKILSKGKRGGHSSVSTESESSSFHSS

For `CC(=O)N[C@H]1CNC(=O)CC[C@@H](C(=O)N[C@@H](CCCNC(=N)N)C(N)=O)NC(=O)CNC(=O)[C@H](Cc2ccc3ccccc3c2)NC(=O)[C@@H](CCCNC(=N)N)NC(=O)[C@H](CCCNC(=N)N)NC(=O)[C@H](Cc2ccc(O)cc2)NC1=O` [Example 1, Ac-cyclo[Dap-Tyr-Arg-DArg-2Nal-Gly-Glu]-Arg-NH2] (Ac-[Dap]YR[dR][2Nal]GER-NH2; lactam 1-7), on CXCR4 [1], the Ki was 3.45 nM. For the compound “cyclo[Gly-Tyr-Lys(iPr)-DArg-2Nal-Gly-DGlu]-NH2 (GY[Lys(iPr)][dR][2Nal]G[dE]-NH2; lactam N-7; SMILES CC(C)NCCCC[C@@H]1NC(=O)[C@H](Cc2ccc(O)cc2)NC(=O)CNC(=O)CC[C@H](C(N)=O)NC(=O)CNC(=O)[C@H](Cc2ccc3ccccc3c2)NC(=O)[C@@H](CCCNC(=N)N)NC1=O) [Example 26]”, the tumor growth inhibition result in series [2] is reported as “significantly inhibit tumor growth”.

Take “cyclo[Gly-Tyr-Lys(iPr)-DArg-2Nal-Gly-Glu]-Arg-NH2 (GY[Lys(iPr)][dR][2Nal]GER-NH2; lactam N-7) [Example 39]”: the “average neutrophil ratio (neutrophil increase in treatment group vs. saline control group)” value in series [3] (3 hours after compound administration, subcutaneous) is 4.6.

The compound `CC(C)NCCCC[C@@H]1NC(=O)[C@H](Cc2ccc(O)cc2)NC(=O)[C@@H](C)NC(=O)CC[C@H](C(N)=O)NC(=O)CNC(=O)[C@H](Cc2ccc3ccccc3c2)NC(=O)[C@@H](CCCNC(=N)N)NC1=O` [Example 50, cyclo[DAla-Tyr-Lys(iPr)-DArg-2Nal-Gly-DGlu]-NH2] ([dA]Y[Lys(iPr)][dR][2Nal]G[dE]-NH2; lactam N-7) came in with an IC50 on CXCR4 [4] of 0.171 nM. For the same compound, the Ki at CXCR4 [1] is 0.285 nM. On CXCR4 [4], `CN(C)CCCC[C@@H]1NC(=O)[C@H](Cc2ccc(O)cc2)NC(=O)[C@@H](NC(=O)c2ccccc2)CC(=O)NC[C@@H](C(=O)N[C@@H](CCCNC(=N)N)C(N)=O)NC(=O)CNC(=O)[C@H](Cc2ccc3ccccc3c2)NC(=O)[C@@H](CCCNC(=N)N)NC1=O` [Example 19, Bz-cyclo[Asp-Tyr-Lys(Me2)-DArg-2Nal-Gly-Dap]-Arg-NH2] (Bz-DY[Lys(Me2)][dR][2Nal]G[Dap]R-NH2; lactam 1-7) gave a 50% inhibitory concentration (IC50) of 2.05 nM. Take “cyclo[Phe-Tyr-Lys(iPr-d6)-DArg-2Nal-Gly-DGlu]-Lys(iPr-d6)-NH2 (FY[Lys(iPr-d6)][dR][2Nal]G[dE][Lys(iPr-d6)]-NH2; lactam N-7) [Example 89]”: the “target receptor affinity compared to the non-labeled counterpart” value with CXCR4 [1] (deuterium-labeled peptide vs non-labeled counterpart) is listed as “identical target receptor affinity”. Turning to “cyclo[Gly-Tyr-Lys(iPr)-DArg-2Nal-Gly-DGlu]-Arg-NH2 (GY[Lys(iPr)][dR][2Nal]G[dE]R-NH2; lactam N-7) [Example 25]”, the “duration of significant increase of neutrophils and white blood cells in peripheral blood” value in series [3] (single dose subcutaneous, mice) was “at least 6 hours”.

As to `CC(C)NCCCC[C@@H]1NC(=O)[C@H](Cc2ccc(O)cc2)NC(=O)CNC(=O)CC[C@H](C(=O)N[C@@H](CCCCNC(C)C)C(=O)NCC(=O)N[C@@H](Cc2ccc3ccccc3c2)C(N)=O)NC(=O)CNC(=O)[C@H](Cc2ccc3ccccc3c2)NC(=O)[C@@H](CCCNC(=N)N)NC1=O` [Example 75, cyclo[Gly-Tyr-Lys(iPr)-DArg-2Nal-Gly-DGlu]-Lys (iPr)-Gly-2Nal-NH2] (GY[Lys(iPr)][dR][2Nal]G[dE][Lys(iPr)]G[2Nal]-NH2; lactam N-7), at CXCR4 [1], the inhibition constant Ki is 0.096 nM. In the series “Bioavailability in rats”, `CCNC(=O)[C@H](CCCNC(=N)N)NC(=O)[C@H]1CCC(=O)NCC(=O)N[C@@H](Cc2ccc(O)cc2)C(=O)N[C@@H](CCCCNC(C)C)C(=O)N[C@H](CCCNC(=N)N)C(=O)N[C@@H](Cc2ccc3ccccc3c2)C(=O)NCC(=O)N1` [Example 44, cyclo[Gly-Tyr-Lys(iPr)-DArg-2Nal-Gly-DGlu]-Arg-NHEt] (GY[Lys(iPr)][dR][2Nal]G[dE]R-NHEt; lactam N-7) gave a bioavailability of around 100%.

(Values after USRE42274E1, “Cyclic peptide CXCR4 antagonists” (Eli Lilly and Company, priority 2007, dated 2011).)
